Data set [1] can be described thus: Electroencephalographic study of threshold and afteraction discharges, curarized animals. Format: in vivo, cats and rabbits. Conditions: 150 to 200 mg/kg. The procedure: The central action of the preparation was studied electroencephalographically. The acute experiments were conducted on curarized cats and rabbits and were aimed at investigating the effects of the preparation upon the threshold magnitude and the duration of afteraction discharges of the dorsal hippocamp, […] nuclei of the thalamus and the motor zone of the cortex.

The nature of data set [2]: Duration of activity, maximum electroshock test. Format: in vivo, white mice. The procedure: Corazol convulsions and maximum electroshock tests were carried out to determine the duration of the preparation's activity. Two series of experiments were made on white mice weighing 20 to 25 g. In the first series, the preparation was introduced intraperitoneally, whereas in the second series it was introduced into the stomach through a metal probe.
The anticonvulsive action of effective doses of the proposed preparation (200 mg/kg were introduced intraperitoneally, and 400 mg/kg were introduced per os) was tested every 30 minutes on separate groups of mice, each including 100 animals. The tests were continued until complete termination of the anticonvulsive effect.

Data set [3] can be described thus: Daily administration for eight weeks, rabbits (chronic toxicity). Format: in vivo. Conditions: 200 mg/kg intraperitoneally once a day. The procedure: The effects of daily administrations of the proposed anticonvulsant, carried out over prolonged periods of time, were studied on rabbits and rats.
A 2-percent colloidal solution of the proposed preparation was introduced intraperitoneally in doses of 200 mg/kg to five rabbits. This was done once a day for eight weeks. The same amounts of a colloidal solution of a carboxymethyl cellulose were administered intraperitoneally to three control rabbits.
Every day the animals' weight and body temperature were measured, and their general state was assessed. Once a week, a general blood analysis was made, the urine was analyzed for protein, blood and biliary pigments. Upon the end of the experiment, the animals were killed (the rabbits were destroyed by air embolism; the rats were decapitated). The liver, heart, kidneys, spleen, lungs and different parts of the small intestine and stomach of the freshly killed animals were taken for pathomorphological investigation.

In another data set the test system is Bacillus coli. In kind it is cell-based.
Data set [4] can be described thus: General effect on behaviour of rabbits. Format: in vivo. Conditions: 500 to 600 mg/kg.

Method for Camphor convulsions test: The anticonvulsant action of the proposed preparation was tested on mice weighing 19 to 25 g and rats weighing 120 to 150 g by conducting maximum electroshock, corazol, strychnine, camphor, nicotine and arecoline tests.

As to `CC(C)Oc1ccc(C2CC(=O)NC2=O)cc1` (stereo not drawn) [proposed preparation, α-/para-isopropoxyphenyl/succinimide], in data set [1], the “afteraction discharges of the thalamic nuclei” value is listed as “prevented afteraction discharges of the thalamic nuclei”, the “convulsion threshold of the hippocamp” value is “slightly raised the convulsion threshold of the hippocamp”, the “period of discharges in the cortex” value is listed as “considerably reduces the period of discharges in the cortex” and the “spread of convulsive activity to other brain structures” value is “prevents the spread of the convulsive activity to other brain structures”. For the same compound, in data set [1], the “stimulation threshold of the motor zone of the cortex” value is “does not raise the stimulation threshold of the motor zone of the cortex”. For the same compound, the “time for which effect is maintained at its peak” value in data set [2] (maximum electroshock) is reported as “seven”. Also, the “duration of effect, oral versus intraperitoneal” value in data set [2] (maximum electroshock test) is on record as “lasts longer in the case of oral administration”. In addition, in data set [3], the “organ changes, macroscopic and microscopic histochemical investigation” value was “no changes were observed”; the “weight, body temperature, general state, blood and urine composition” value was “no changes were registered in the weight, body temperature and general state of the animals”. Further, in the data set on Bacillus coli, the mutagenous effect result was “no mutagenous effect”. In addition, in “Camphor convulsions test” (Mus musculus, read-out: ED50 (camphor)), the ED50 amounted to 90 mg/kg. In “Camphor convulsions test” (camphor), the “protection index I=TD50/ED50, Camphor” value amounted to 8 and the “protection index PI (mean lethal dose / mean effective dose), Camphor” value is given as 23.9. Also, the “antistrychnine effect, ranking of the three drugs” value (in words) is reported as “the most pronounced”. Under “strychnine”, the “ED50 (strychnine)” value amounted to 110 mg/kg; the “protection index I=TD50/ED50, Strychnine” value amounted to 6.55; the “protection index PI (mean lethal dose / mean effective dose), Strychnine” value worked out at 19.55. Besides, the “effect on behaviour of rabbits” value in data set [4] is listed as “no conspicuous changes in the behaviour”.

What is called ED50 is the dose at which the effect has come halfway, by size or by number of responders.

For the origin of these results see patent publication US4188398A, “Method for treating epilepsy” (priority 1978, dated 1980).
